Assay results: patent US20240002393A1, “SUBSTITUTED BENZO[f][l ,2,4JTRIAZOL0[4,3-a][l ,4J[…] GABA A GAMMA! POSITIVE ALLOSTERIC MODULATORS” (Hoffmann-La Roche Inc., priority 2020, published 2024)
pKi: −log10 of the molar value.

Columns and labels:
[1] = target: human GABAA α2β2γ1 receptor (Homo sapiens (Human), UniProt P47869+Q8N1C3); assay: Radioligand binding assay, [3H]RO7239181 competition, γ1-containing GABAA subtypes; settings: for γ2/γ1 Selectivity Ratio: Ki α1β3γ2 (nM)/Ki α2β2γ1 (nM); for LogSel: Log[Ki α1β3γ2 (nM)/Ki α2β2γ1 (nM)]
Protocol: The affinity of compounds at GABAA γ1 subunit-containing receptors was measured by competition for [^3H]RO7239181 (67.3 Ci/mmol; Roche) binding to membranes from HEK293F cells (ThermoFisher R79007) expressing human (transiently transfected) receptors of composition α5β2γ1, α2β2γ1, α1β2γ1.
Harvested pellets from HEK293F cells expressing the different GABAA receptor subtypes were resuspended in Mannitol Buffer pH 7.2-7.4 (Mannitol 0.29M, Triethylamine 10 mM, Acetic acid 10 mM, EDTA 1 mM plus protease inhibitors (20 tablets Complete, Roche Diagnostics Cat. No. 05 056 489 001 per liter)), washed two times and then resuspended at 1:10 to 1:15 dilution in the same buffer. Cell disruption was performed by stirring the suspension in a Parr vessel #4637 at 435 psi for 15 minutes, and then the suspensions were centrifuged at 1000×g for 15 minutes at 4° C. (Beckman Avanti J-HC; rotor JS)-4.2). The supernatant (S1) was transferred in a 21 Schott flask and the pellet (P1) was resuspended with Mannitol Buffer up to 175 ml. The resuspended pellet was transferred into a 250 ml Corning centrifugal beaker and centrifuged at 1500×g for 10 minutes at 4° C. (Beckman Avanti J-HC; rotor JS)-4.2). The supernatant (S1) was then transferred in the 21 Schott flask and the pellet was discarded. The supernatants (S1) were centrifuged in 500 ml Beckman polypropylene centrifugal beaker at 15,000×g for 30 minutes at 4° C. (Beckman Avanti J-20 XP; rotor JLA-10.500). The pellet (P2) was resuspended with Mannitol Buffer 1:1 and frozen at −80° C. The supernatant (S2) was centrifuged in 100 ml Beckman polypropylene centrifugal tubes at 48000×g for 50 minutes at […] (Beckman Avanti J-20 XP; rotor JA-18). The supernatant (S3) was discarded and the pellet (P3) was resuspended with 1:1 Mannitol Buffer. The P2 and P3 protein concentration was determined with the BIORAD Standard assay method with bovine serum albumin as standard and measured on the NANO-Drop 1000. The membrane suspension was aliquots (500 μl per tube) and stored at −80° C. until required.
Membrane homogenates were resuspended and polytronised (Polytron PT1200E Kinematica AG) in Potassium Phosphate 10 mM, KCl 100 mM binding buffer at pH 7.4 to a final assay concentration determined with a previous experiment.
Assays were incubated to equilibrium for 1 hour at 4° C. and then, membranes were filtered onto unifilter (96-well white microplate with bonded GF/C filters preincubated 20-50 minutes in 0.3% Polyethylenimine) with a Filtermate 196 harvester (Packard BioScience) and washed 4 times with cold Potassium Phosphate 10 mM pH 7.4, KCl 100 mM binding buffer. After drying, filter-retained radioactivity was detected by liquid scintillation counting. K, values were calculated using Excel-Fit (Microsoft) and are the means of two determinations.

h-GABA-A α2β2γ1 = h-GABA-A α2β2γ1 (Homo sapiens (Human), UniProt P47869+Q8N1C3); assay: Two-electrode voltage clamp electrophysiology in Xenopus oocytes expressing GABAA receptors; type: cell-based; settings: for potentiation of the GABA-induced current in α2βγ1 GABAA receptor subtype expressing oocytes: reference PAMs, GABA EC20
Protocol: Xenopus laevis oocytes at maturation stages V-VI were used for the expression of cloned mRNA encoding GABAA receptor subunits. Oocytes ready for RNA micro-injection were bought from Ecocyte, Castrop-Rauxel, Germany and stored in modified Barth's medium (composition in mM: NaCl 88, KCl 1, NaHCO3 2.4, HEPES 10, MgSO4 0.82, CaNO3 0.33, CaCl2 0.33, pH=7.5) at 20° C. until the experiment.
Oocytes were plated in 96-well plates for microinjection using the Roboinject automated instrument (MultiChannelSystems, Reutlingen, Germany). Approximately 50 nL of an aqueous solution containing the RNA transcripts for the subunits of the desired GABAA receptor subtype was injected into each oocyte. […] Oocytes were kept in modified Barth's medium (composition in mM: NaCl 88, KCl 1, NaHCO3 […], HEPES 10, MgSO4 0.82, CaNO3 0.33, CaCl2 0.33, pH=7.5) at 20° C. until the experiment.
Electrophysiological experiments were performed using the Roboocyte instrument (MultiChannelSystems, Reutlingen, Germany) on days 3 to 5 after the micro-injection of mRNA. During the experiment the oocytes were constantly superfused by a solution containing (in mM) NaCl 90, KCl 1, HEPES 5, MgCl2 1 CaCl2 1 (pH 7.4). Oocytes were impaled by two glass microelectrodes (resistance: 0.5-0.8 MΩ) which were filled with a solution containing KCl 1M+K-acetate 1.5 M and voltage-clamped to −80 mV. The recordings were performed at room temperature using the Roboocyte two-electrode voltage clamp system (Multichannelsystem). After an initial equilibration period of 1.5 min GABA was added for 1.5 min at a concentration evoking approximately 20% of a maximal current response (EC20). After another rest interval of 2.5 min GABA was again added evoking a response of similar amplitude and shape. […] Current traces were recorded at a digitization rate of 10 Hz during and shortly before and after the GABA application.
Each compound and concentration was tested on at least 3 oocytes. Different oocytes were used for different compound concentrations.
For the analysis, the digitized current traces of the first and second GABA response were superimposed and, if necessary, rescaled to equal maximal amplitudes. The ratio between the two responses during the time interval of test compound application was calculated point by point. The extremum of the resulting “ratio trace” was taken as the efficacy (“Fold increase”) of the compound expressed as “% modulation of GABA EC20” (100*(Fold increase−1)).

[2] = target: human GABAA α1β3γ2 receptor (Homo sapiens (Human), UniProt P14867+P18507); assay: Radioligand binding assay, [3H]Flumazenil competition, γ2-containing GABAA subtypes
Protocol: The affinity of compounds at GABAA γ2 subunit-containing receptors was measured by competition for [^3H]Flumazenil (81.1 Ci/mmol; Roche) binding to HEK293F cells expressing human (transiently transfected) receptors of composition α1β3γ2.
Harvested pellets from HEK293F cells expressing the different GABAA γ2 receptor subtypes were resuspended in Mannitol Buffer pH 7.2-7.4 and processed as described above for the cells expressing the GABAA γ1 subunit-containing receptors.
Assays were incubated to equilibrium for 1 hour at 4° C. and harvested onto GF/C uni-filters (Packard) by filtration using a Packard harvester and washing with ice-cold wash buffer (50 mM Tris; pH 7.5). After drying, filter-retained radioactivity was detected by liquid scintillation counting. Ki values were calculated using Exel-Fit (Microsoft) and are the means of two determinations.

SMILES | γ2/γ1 Selectivity Ratio [1] | LogSel [1] | Efficacy (GABA)% (h-GABA-A α2β2γ1; % modulation of GABA EC20 = 100*(Fold increase−1), compound at 30-fold Ki) [%] | potentiation of the GABA-induced current in α2βγ1 GABAA receptor subtype expressing oocytes (h-GABA-A α2β2γ1) [%] | pKi [1] | pKi [2]
Cc1nnc2n1-c1ccc(Cl)cc1C(c1ccccc1)=NC2 [Alprazolam, reference compound] | 0.0050 | −2.3 | – | – | – | –
Clc1ccc2c(c1)C(c1ccccc1)=NCc1nncn1-2 [Estazolam, reference compound] | 0.0089 | −2.0 | – | – | – | –
CCc1nnc2n1-c1ccc(C(F)(F)F)c(Cl)c1C(c1c(F)cccc1F)=N[C@H]2C [Example 108, (4S)-7-chloro-6-(2,6-difluorophenyl)-1-ethyl-4-methyl-8-(trifluoromethyl)-4H-[1,2,4]triazolo[4,3-a][1,4]benzodiazepine] | 50.4 | – | 94 | – | – | –
CN1C(=O)CN=C(c2ccccc2F)c2cc([N+](=O)[O-])ccc21 [Flunitrazepam, reference compound] | – | – | – | ~60 | – | –
Cc1ncc2n1-c1ccc(Cl)cc1C(c1ccccc1F)=NC2 [Midazolam, reference compound] | 0.0068 | −2.2 | – | ~60 | – | –
Cc1nnc2n1-c1ccc(Br)cc1C(c1c(F)cccc1F)=NC2 [RE-A, 8-bromo-6-(2,6-difluorophenyl)-1-methyl-4H-[1,2,4]triazolo[4,3-a][1,4]benzodiazepine, reference compound] | 0.18 | −0.74 | – | – | – | –
Cc1nnc2n1-c1ccc(C(F)(F)F)cc1C(c1c(F)cccc1F)=NC2 [RE-B, 6-(2,6-difluorophenyl)-1-methyl-8-(trifluoromethyl)-4H-[1,2,4]triazolo[4,3-a][1,4]benzodiazepine, reference compound] | 0.23 | −0.64 | – | – | – | –
Cc1nnc2n1-c1ccccc1C(c1c(F)cccc1F)=NC2 [RE-C, 6-(2,6-difluorophenyl)-1-methyl-4H-[1,2,4]triazolo[4,3-a][1,4]benzodiazepine, reference compound] | 0.0092 | −2.0 | – | – | – | –
Cc1nnc2n1-c1cccc(Cl)c1C(c1c(F)cccc1F)=N[C@H]2C [RE-D, (4S)-7-chloro-6-(2,6-difluorophenyl)-1,4-dimethyl-4H-[1,2,4]triazolo[4,3-a][1,4]benzodiazepine, reference compound] | 2.215 | 0.35 | – | – | 6.34 | 6.00
Cc1nnc2n1-c1ccc(Cl)cc1C(c1ccccc1Cl)=NC2 [Triazolam, reference compound] | – | −1.5 | – | ~60 | – | –
